Like-named read-outs stand apart in the source and are kept apart here. Bounds are passed on as bounds.

Assay [1] addresses T1, HiBiT-BCL-xL (Homo sapiens, UniProt Q07817).
T1 construct: endogenous in cells; host or cells: HeLa (ATCC CCL-2), CRISPR-Cas9 HiBiT knock-in clone
Kind of assay: HiBiT degradation assay, HiBiT knock-in BCL-xL HeLa cells. It counts as cell-based. The method, then: (§1) The Alt-R CRISPR RNA (crRNA):Alt-R trans-activating crRNA (tracrRNA) duplexes for targeting BCL-xL or BCL-2 were prepared by mixing 0.5 nmol crRNA and 0.5 nmol tracrRNA in 25 μL of Nuclease-Free Duplex Buffer (Integrated DNA Technologies, IDT) by incubation at 95 °C for 5 min and cooling to RT. Single-stranded ultramer DNA oligonucleotides (ssODN) (IDT) were used as the homology directed repair (HDR) donor templates. The sequences of gRNAs and ssODN templates are listed in Supplementary Table 2. Ribonucleoprotein (RNP) complexes with recombinant Streptococcus pyogenes Cas9 protein (IDT) and crRNA:tracrRNA duplex were assembled by incubating 100 pmol of Cas9 and 120 pmol of gRNA for 10–20 min at room temperature. HeLa (2 × 10^5) cells were resuspended in 10 μL of Neon^TM transfection system buffer R from the Neon^TM transfection system 10 mL kit (Thermo Fisher), and the RNP complex along with 100 pmol ssODN template were electroporated into HeLa cells with the Neon^TM transfection system (Thermo Fisher). After electroporation, HeLa cells were transferred to a 12-well plate for culturing. Edited pooled cells were analyzed for HiBiT insertion by assaying for luminescence using Nano-Glo® HiBiT lytic detection system (Cat #N3040, Promega) in a Biotek’s Synergy Neo2 multimode plate reader (Biotek) 48–72 h after electroporation and single clones were selected by serial dilution.
(§2) HeLa HiBiT-BCL-xL and HeLa HiBiT-BCL-2 cells (2 × 10^4/well in 80 μL DMEM) were seeded into white 96-well tissue culture plates and incubated overnight at 37 °C, 5% CO2. For dose curve testing, the following day, serial diluted compounds were added into the medium and then plates were incubated at 37 °C, 5% CO2, for 6 h. For time course testing, in the following day, compounds with indicated concentrations were added into the medium at different time points. After treatment, the luminescence signals were measured using Nano-Glo® HiBiT lytic detection system (Cat #N3040, Promega) in a Biotek’s Synergy Neo2 multimode plate reader (Biotek).

Assay [2] addresses T2, HiBiT-BCL-2 (Homo sapiens, UniProt P10415).
T2 construct: endogenous in cells; host or cells: HeLa (ATCC CCL-2), CRISPR-Cas9 HiBiT knock-in clone
Kind of assay: HiBiT degradation assay, HiBiT knock-in BCL-2 HeLa cells. The conditions noted are these: for Time to degrade 50% of BCL-2: 100 nM compound. Type of assay: cell-based. How it is done: as §1, §2
(With HiBiT, luminescence reflects the tagged protein that the partner subunit can reach.)

Assay [3] addresses T3, WT BCL-xL (Homo sapiens, UniProt Q07817).
T3 construct: BCL-xL (aa 2-212) and BCL-2 (aa 1-207) transformed cells were grown in LB broth; SMT3 (N); made in house; host or cells: E. coli BL21 (DE3) codon plus
In words: AlphaScreen displacement binary binding assay, WT BCL-xL. To be noted: for Kd: Supplementary Fig. 11. The method, then: (§3) To test the binary/ternary binding affinities of compounds to BCL-2/BCL-xL, AlphaScreen displacement binding assay was performed to test the capabilities of testing compounds to displace a Biotin-tagged Bim (Biotin-[…]) or Bad (Biotin-[…]) from BCL-2 or BCL-xL for BCL-2 and BCL-xL binding affinities, respectively. All reagents were diluted in assay buffer of 25 mM HEPES, pH 7.5, 150 mM NaCl, 0.1% BSA, and 0.005% tween 20 prior incubation. To a 96-well PCR plate (VWR, Cat. No. 82006-636) was added 10 μL Biotin-tagged Bim (15 nM for WT or 50 nM for mutants) or Bad (15 nM for WT or 50 nM for mutants), 10 μL series diluted compounds solution (2 or 3 or 4× dilution), and 10 μL self-made 6×His tagged BCL-2 WT or mutants (25 nM WT or 50 nM mutants) or 10 μL self-made BCL-xL WT and mutants (10 nM WT or 50 nM mutants). After incubating at room temperature for 30 min, 5 µL of 160 μg/mL of anti-6×His acceptor beads (PerkinElmer, Cat. No. AL128M) was added and the mixture was incubated at room temperature for 15 min. 5 µL of 160 μg/mL of streptavidin donor beads (PerkinElmer, 6760002) was then added under subdued light and the mixture was incubated at dark for 30 min before being transferred to two adjacent wells (17 µL each) of 384-well white OptiPlate (PerkinElmer, Cat. No. 6008280). The luminescence signal was detected on a Biotek’s Synergy Neo2 multimode plate reader installed with an AphaScreen filter cube. The Ki values of each compounds were calculated by fitting data into the “Binding-competitive, One site-Fit Ki” function in GraphPad Prism (9.2.0) based on concentrations of Biotin–peptide used and experimentally determined Kd values of each 6×His protein &&&and Biotin–Peptide pair.

Assay [4] concerns the target T4, WT BCL-2 (Homo sapiens, UniProt P10415).
T4 construct: BCL-xL (aa 2-212) and BCL-2 (aa 1-207) transformed cells were grown in LB broth; made in house; host or cells: E. coli BL21 (DE3) codon plus
Kind of assay: AlphaScreen displacement binary binding assay, WT BCL-2. How it is done: as §3

The target of assay [5] is T5, BCL-2 E114A (Homo sapiens, UniProt P10415, E114A).
T5 construct: BCL-xL (aa 2-212) and BCL-2 (aa 1-207) transformed cells were grown in LB broth; made in house; host or cells: E. coli BL21 (DE3) codon plus
T5 sequence (P10415 1-207 E114A): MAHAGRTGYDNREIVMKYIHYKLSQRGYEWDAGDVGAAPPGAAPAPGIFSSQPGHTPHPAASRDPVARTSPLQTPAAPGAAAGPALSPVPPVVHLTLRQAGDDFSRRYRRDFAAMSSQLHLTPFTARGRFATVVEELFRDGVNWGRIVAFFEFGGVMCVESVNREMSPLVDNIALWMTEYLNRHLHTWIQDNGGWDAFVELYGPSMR
In words: AlphaScreen binary binding, BCL-2 E114A. The method, then:
(§4) To test the binary/ternary binding affinities of compounds to BCL-2/BCL-xL, AlphaScreen displacement binding assay was performed to test the capabilities of testing compounds to displace a Biotin-tagged Bim (Biotin-[…]) or Bad (Biotin-[…]) from BCL-2 or BCL-xL for BCL-2 and BCL-xL binding affinities, respectively. All reagents were diluted in assay buffer of 25 mM HEPES, pH 7.5, 150 mM NaCl, 0.1% BSA, and 0.005% tween 20 prior incubation. To a 96-well PCR plate (VWR, Cat. No. 82006-636) was added 10 μL Biotin-tagged Bim (15 nM for WT or 50 nM for mutants) or Bad (15 nM for WT or 50 nM for mutants), 10 μL series diluted compounds solution (2 or 3 or 4× dilution), and 10 μL self-made 6×His tagged BCL-2 WT or mutants (25 nM WT or 50 nM mutants) or 10 μL self-made BCL-xL WT and mutants (10 nM WT or 50 nM mutants). […] The luminescence signal was detected on a Biotek’s Synergy Neo2 multimode plate reader installed with an AphaScreen filter cube. The Ki values of each compounds were calculated by fitting data into the “Binding-competitive, One site-Fit Ki” function in GraphPad Prism (9.2.0) based on concentrations of Biotin–peptide used and experimentally determined Kd values of each 6×His protein &&&and Biotin–Peptide pair.

Assay [6] addresses T6, BCL-2 R110A E114K (Homo sapiens, UniProt P10415, E114K/R110A).
T6 construct: BCL-xL (aa 2-212) and BCL-2 (aa 1-207) transformed cells were grown in LB broth; made in house; host or cells: E. coli BL21 (DE3) codon plus
Kind of assay: AlphaScreen binary binding, BCL-2 R110A E114K. To be noted: mean ± s.d., n=3. The method, then:
as §4
Background: In Alpha technology, singlet oxygen from a donor bead excites a nearby acceptor bead.

The mark [7] stands for this setting: mean ± s.d., n=3, read-out: Ki (nM, n=3), BCL-2 WT.
The mark [8] stands for this setting: response letter, Supplementary Fig. 11, read-out: Ki, binary complex with BCL-2.

T2 sequence (P10415 whole entry): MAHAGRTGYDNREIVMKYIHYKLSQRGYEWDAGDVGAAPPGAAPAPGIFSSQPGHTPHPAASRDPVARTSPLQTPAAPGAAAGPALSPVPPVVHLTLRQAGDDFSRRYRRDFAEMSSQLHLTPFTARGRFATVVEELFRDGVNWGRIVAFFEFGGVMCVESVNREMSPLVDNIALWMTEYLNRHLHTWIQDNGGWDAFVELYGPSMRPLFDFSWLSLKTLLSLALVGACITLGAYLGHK
T4 sequence (P10415 1-207): as the sequence (P10415 1-207 E114A) above, with A114E counted along it
T3 sequence (Q07817 2-212): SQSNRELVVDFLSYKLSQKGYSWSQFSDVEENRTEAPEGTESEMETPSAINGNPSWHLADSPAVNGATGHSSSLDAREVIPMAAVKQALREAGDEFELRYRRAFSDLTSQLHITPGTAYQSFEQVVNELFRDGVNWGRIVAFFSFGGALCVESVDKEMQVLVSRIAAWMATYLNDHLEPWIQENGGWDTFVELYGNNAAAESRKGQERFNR
T1 sequence (Q07817 whole entry): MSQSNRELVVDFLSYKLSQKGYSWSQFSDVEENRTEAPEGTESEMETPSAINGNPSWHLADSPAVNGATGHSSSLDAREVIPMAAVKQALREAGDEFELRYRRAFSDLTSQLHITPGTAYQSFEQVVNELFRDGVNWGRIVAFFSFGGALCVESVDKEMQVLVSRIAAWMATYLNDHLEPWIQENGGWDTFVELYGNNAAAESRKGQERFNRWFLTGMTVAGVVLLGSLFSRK
T6 sequence (P10415 1-207 R110A/E114K): as the sequence (P10415 1-207 E114A) above, with R110A, A114K counted along it

For `Cc1ncsc1-c1ccc(C(C)NC(=O)C2CC(O)CN2C(=O)C(NC(=O)CCCCCCC(=O)N2CCN(CC3(C)CCC(c4ccc(Cl)cc4)=C(CN4CCN(c5ccc(C(=O)NS(=O)(=O)c6ccc(NC(CCN7CCOCC7)CSc7ccccc7)c(S(=O)(=O)C(F)(F)F)c6)cc5)CC4)C3)CC2)C(C)(C)C)cc1` (centres unmarked) [753b], the “Time to degrade 50% of BCL-xL” value in assay [1] (10 nM compound) was greater than 480 min; in assay [1] (100 nM compound) it was ~ 84 min. The “Time to degrade 50% of BCL-2” value in assay [2] is on record as greater than 480 min. In addition, the Kd – broadly, the constant that tells how readily two partners part at equilibrium – was roughly 28 nM in assay [3] and roughly 23.4 nM in assay [4] (Supplementary Fig. 11). The Ki (usually a dissociation constant, usually derived from enzyme kinetics or from competition with a known ligand) in assay [3] (mean ± s.d., n=3) amounted to 21.9 ± 7.3 nM; in assay [4] (setting [7]), 24.9 ± 5.4 nM; in assay [4] (setting [8]), 23.4 nM.
Take `Cc1ncsc1-c1ccc([C@H](C)NC(=O)[C@@H]2C[C@@H](O)CN2C(=O)[C@@H](NC(=O)CN2CCN(CC(=O)N3CCN(C[C@]4(C)CCC(c5ccc(Cl)cc5)=C(CN5CCN(c6ccc(C(=O)NS(=O)(=O)c7ccc(N[C@H](CCN8C[C@@H]9C[C@H]8CO9)CSc8ccccc8)c(S(=O)(=O)C(F)(F)F)c7)cc6)CC5)C4)CC3)CC2)C(C)(C)C)cc1` [WH244]: the “Time to degrade 50% of BCL-xL” value is listed as ~ 219 min in assay [1] (10 nM compound) and ~ 45 min in assay [1] (100 nM compound). The “Potency for inducing degradation of BCL-xL (comparison)” value in assay [1] (6 h treatment) is recorded as “more potent than 753b”. The “Time to degrade 50% of BCL-2” value in assay [2] is given as “about 250 min”. In addition, in assay [2] (6 h treatment), the “Potency for inducing degradation of BCL-2 (comparison)” value was “more potent than 753b”. Moreover, the dissociation constant Kd in assay [3] was roughly 6.14 nM; in assay [4] (Supplementary Fig. 11) it was roughly 3.1 nM. Also, the Ki in assay [4] (setting [7]) came to 3.5 ± 0.5 nM; in assay [4] (setting [8]), 3.1 nM; in assay [5] (mean ± s.d., n=3) it was 7.4 ± 1.5 nM; in assay [6], 7 ± 0.9 nM. The “Increase in Ki for the binary interaction, mutant E114A versus WT BCL-2” value in assay [5] was “more than two-fold”.

Source of the values: publication PMC10979003, “Development and crystal structures of a potent second-generation dual degrader of BCL-2 and BCL-xL” (Nature Communications, 2024).
